{"source": "patent US20080003606A1", "about": "“DIAGNOSIS OF TAMOXIFEN SENSITIVITY” (priority 2004, published 2008)", "test_system": "ER positive invasive breast cancer", "test": "Randomized trial of 2 years of adjuvant tamoxifen vs no adjuvant treatment, survival analysed by cyclin D1/A2 expression and CCND1 amplification", "type": "in vivo, human", "settings": "for Overall Survival RR / Recurrence Free Survival RR: Cox univariate, ER+, tamoxifen vs control (1.00)", "description": "During 1984-1991, 564 premenopausal patients or patients under 50 years with stage 11 (pT2 N0 M0, pT1 N1 M0 and pT2, N1 M0) invasive breast cancer were enrolled in a randomized trial of 2 years of adjuvant tamoxifen treatment with a daily dosage of either 40 mg (study center 1) or 20 mg (study center 2) or no adjuvant treatment (detailed in [14]).\nAll available archived primary tumor specimens were collected (n=500). Areas with invasive cancer were marked on the H&E stained slides and two 0.6 mm tissue cores were taken from each donor block and mounted in a recipient block using an automated arrayer ((ATA-27, Beecher Inc, WI, USA).\nFor cyclin A2 expression, only the fraction of positively staining nuclei were calculated (405 cases) and subdivided into five groups based on the following score: 0 (0-1%), 1 (2-10%), 2 (11-25%), 3 (26-50%) and 4 (>50%). For cyclin D1, the nuclear fraction and intensity as well as the cytoplasmic staining intensity was evaluated (463 cases). The nuclear fractions were divided into the following five subgroups: 0 (0%), 1 (1-25%), 2 (26-50%), 3 (51-75%) and 4 (>75%). The nuclear and cytoplasmic intensity was evaluated as absent=0, weak=1, intermediate=2 and strong=3. The TMA:s had previously been analyzed immunohistochemically for estrogen- (ER) and progesterone (PR) receptor status (anti-ER Clone 6F11 and anti-PgR Clone 16) using the Ventana Benchmark system (Ventana Medical Systems Inc., AZ, USA). In line with the clinically established cut-off used for hormone receptor assessment, tumors with more than 10% positively staining nuclei were considered positive.\nFor fluorescence in situ (FISH) analysis of CCND1 gene amplification, two direct-labeled probes were used, LSI cyclin D1 (11q13) SpectrumOrange against CCND1 (11q13) and CEP 11 SpectrumGreen (Vysis Inc., Illinois, USA) against the centromere of chromosome 11. The FISH analysis was performed according to the standard protocol recommended by the manufacturer and according to “LSI® Locus Specific Identifier DNA probes” from Vysis Inc., Illinois. Briefly, tissue sections were de-paraffinized in xylene and alcohol and air-dried. The slides were then microwave-treated in Target Retrieval Solution pH 7.3 (DAKO A/S, Glostrup, Denmark) for 5+5 minutes and treated with 100 μl pepsin (Digest-All 3, Zymed, California, USA) for 8 minutes in 37° C. and washed in water. The de-paraffinized slides were denatured in 70% formamide/2×SSC at 73° C. for 5 minutes followed by dehydration in graded ethanol. A denatured mixture of 1 μl LSI probe, 2 μl pH2O and 7 μl LSI hybridization buffer was added on each slide and incubated at 37° C. overnight. The slides were then washed with 0.4×SSC/0.3% Nonidet P40 at 37±1° C. for 2 minutes followed by a 2×SSC/0.1% NP40 wash at ambient temperature for 1 minute to remove non-specifically bound probe.\nFor evaluation, the CCND1 gene was considered amplified when the ratio of orange/green was >1. Non-amplified cases were classified as 0, cases with up to 10 copies as 1 and >10 copies as 2.\nBaseline prognostic and patient characteristics between the original study group, patients with available FISH data (n=280) and patients without FISH data (n=284) were compared using the chi-square test to exclude the possibility of selection bias. Baseline prognostic and patients characteristics were also compared between amplified and non-amplified cases using the same approach as well as the marker distribution according to trial arm. For evaluation of treatment response, only tumors with >10% ER positivity were included. Kaplan-Meier and log-rank tests and univariate Cox regression analyses were used for recurrence free survival (RFS), breast cancer survival (BCS) and overall survival (OS).", "key": {"[1]": {"settings": "Multivariate Cox model with A2 NF and interaction variable, adjusted for age, tumor size, NHG, Ki-67 and nodal status"}, "[2]": {"settings": "Multivariate Cox model with CCND1 amplification and interaction variable, adjusted for age, tumor size, NHG, Ki-67 and nodal status"}, "[3]": {"settings": "Multivariate Cox model with D1 NF and interaction variable, adjusted for age, tumor size, NHG, Ki-67 and nodal status"}, "[4]": {"settings": "Multivariate Cox model with D1 NI and interaction variable, adjusted for age, tumor size, NHG, Ki-67 and nodal status"}, "[5]": {"settings": "Multivariate Cox model, adjusted for age, tumor size, NHG, Ki-67 and nodal status"}}}
{"smiles": "CC/C(=C(\\c1ccccc1)c1ccc(OCCN(C)C)cc1)c1ccccc1", "note": "[tamoxifen]", "values": [{"measurement": "tamoxifen effect", "setting": "CCND1-amplified tumors without high cyclin D1 protein intensity or >50% cyclin D1 positive cells", "value": "clear adverse tamoxifen effect"}, {"measurement": "Overall Survival RR", "setting": "CCND1 amplified", "value": 2.13}, {"measurement": "Recurrence Free Survival RR", "setting": "CCND1 amplified", "value": 2.22}, {"measurement": "Overall Survival RR", "setting": "CCND1 not amplified", "value": 0.43}, {"measurement": "Recurrence Free Survival RR", "setting": "CCND1 not amplified", "value": 0.39}, {"measurement": "Overall Survival RR", "setting": "Cyclin A2 nf <10%", "value": 0.72}, {"measurement": "Recurrence Free Survival RR", "setting": "Cyclin A2 nf <10%", "value": 0.51}, {"measurement": "Overall Survival RR", "setting": "Cyclin A2 nf >10%", "value": 0.92}, {"measurement": "Recurrence Free Survival RR", "setting": "Cyclin A2 nf >10%", "value": 0.86}, {"measurement": "Overall Survival RR", "setting": "Cyclin D1 nf <25%", "value": 0.65}, {"measurement": "Recurrence Free Survival RR", "setting": "Cyclin D1 nf <25%", "value": 0.62}, {"measurement": "Overall Survival RR", "setting": "Cyclin D1 nf >25%", "value": 0.78}, {"measurement": "Recurrence Free Survival RR", "setting": "Cyclin D1 nf >25%", "value": 0.61}, {"measurement": "Overall Survival RR", "setting": "Cyclin D1 ni high", "value": 0.77}, {"measurement": "Recurrence Free Survival RR", "setting": "Cyclin D1 ni high", "value": 0.84}, {"measurement": "Overall Survival RR", "setting": "Cyclin D1 ni low/intermediate", "value": 0.72}, {"measurement": "Recurrence Free Survival RR", "setting": "Cyclin D1 ni low/intermediate", "value": 0.59}, {"measurement": "Overall survival RR, Treatment tamoxifen vs control", "setting": "[1]", "value": 0.64}, {"measurement": "Recurrence free survival RR, Treatment tamoxifen vs control", "setting": "[1]", "value": 0.46}, {"measurement": "Overall survival RR, Treatment tamoxifen vs control", "setting": "[2]", "value": 0.41}, {"measurement": "Recurrence free survival RR, Treatment tamoxifen vs control", "setting": "[2]", "value": 0.37}, {"measurement": "Overall survival RR, Treatment tamoxifen vs control", "setting": "[3]", "value": 0.67}, {"measurement": "Recurrence free survival RR, Treatment tamoxifen vs control", "setting": "[3]", "value": 0.62}, {"measurement": "Overall survival RR, Treatment tamoxifen vs control", "setting": "[4]", "value": 0.78}, {"measurement": "Recurrence free survival RR, Treatment tamoxifen vs control", "setting": "[4]", "value": 0.62}, {"measurement": "Overall survival RR, Interaction variable tamoxifen × A2 nf", "setting": "[5]", "value": 1.40}, {"measurement": "Overall survival RR, Interaction variable tamoxifen × CCND1", "setting": "[5]", "value": 5.85}, {"measurement": "Overall survival RR, Interaction variable tamoxifen × D1 nf", "setting": "[5]", "value": 1.29}, {"measurement": "Overall survival RR, Interaction variable tamoxifen × D1 ni", "setting": "[5]", "value": 1.00}, {"measurement": "Recurrence free survival RR, Interaction variable tamoxifen × A2 nf", "setting": "[5]", "value": 1.93}, {"measurement": "Recurrence free survival RR, Interaction variable tamoxifen × CCND1", "setting": "[5]", "value": 6.26}, {"measurement": "Recurrence free survival RR, Interaction variable tamoxifen × D1 nf", "setting": "[5]", "value": 0.98}, {"measurement": "Recurrence free survival RR, Interaction variable tamoxifen × D1 ni", "setting": "[5]", "value": 1.27}, {"measurement": "difference in treatment response, multivariate interaction variable", "setting": "node positive patients, CCND1-amplified tumors", "value": "more then nine-fold"}, {"measurement": "10 year RFS", "setting": "node positive patients, amplified tumors, treated arm (untreated 68%)", "value": 13, "unit": "%"}, {"measurement": "difference in tamoxifen treatment effect", "setting": "patients with CCND1-amplified tumors, multivariate interaction analyses", "value": "6-9 fold"}, {"measurement": "10 years RFS", "setting": "patients with amplified tumors, tamoxifen treated arm (untreated 62%)", "value": 29, "unit": "%"}, {"measurement": "10 years OS", "setting": "patients with amplified tumors, tamoxifen treated arm (untreated 74%)", "value": 56, "unit": "%"}, {"measurement": "proportional 10-year recurrence free survival (RFS)", "setting": "patients with non-amplified tumors, treatment arm (control 44%)", "value": 74, "unit": "%"}, {"measurement": "10-year overall survival (OS)", "setting": "patients with non-amplified tumors, treatment arm (control 61%)", "value": 78, "unit": "%"}, {"measurement": "tamoxifen response", "setting": "tumors with >10% positive cyclin A2 nuclei", "value": "lack of response"}, {"measurement": "tamoxifen response", "setting": "tumors with less than 10% positive cyclin A2 nuclei", "value": "responded well"}, {"measurement": "tamoxifen response regarding recurrence free survival (RFS)", "setting": "tumors with strong nuclear cyclin D1 staining intensity", "value": "did not respond"}]}
